Data published in ChEMBL document CHEMBL1201862, “PubChem BioAssay data set” (2004).
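Interpolation was linear, between the two tested concentrations surrounding the appropriate level; five concentrations were tested over 48 hours in 96-well plates. GI50: concentration for 50% inhibition of growth.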 Calls of active or inactive are those of the source. Cut-off read from the data, not from the text of the source: active = GI50 up to about 1.1 µM and inactive = higher.

Columns and labels:
Assay in all cases: NCI anticancer screen, dose series, 48 h
MCF7 = test system: MCF7
SR = test system: SR
SNB-75 = test system: SNB-75
M14 = test system: M14
Hs-578T = test system: Hs-578T
NCI-H226 = test system: NCI-H226
HOP-92 = test system: HOP-92
CAKI-1 = test system: CAKI-1
Malme-3M = test system: Malme-3M
UACC-62 = test system: UACC-62
SN12C = test system: SN12C
SK-MEL-5 = test system: SK-MEL-5
MDA-N = test system: MDA-N
A498 = test system: A498
SK-MEL-2 = test system: SK-MEL-2
SF-268 = test system: SF-268
UO-31 = test system: UO-31
IGROV-1 = test system: IGROV-1
CCRF-CEM = test system: CCRF-CEM

Measured: GI50

Nc1nc(N)c(Cn2ccnc2)c(O)n1
inactive: MCF7 > 100 µM | SR > 100 µM | SNB-75 > 100 µM | M14 > 100 µM | Hs-578T > 100 µM | NCI-H226 > 100 µM | HOP-92 > 100 µM | CAKI-1 > 100 µM | Malme-3M > 100 µM | UACC-62 > 100 µM | SN12C 5.15 µM | SK-MEL-5 > 100 µM | MDA-N > 100 µM | A498 > 100 µM | SK-MEL-2 > 100 µM | SF-268 > 100 µM | UO-31 > 100 µM | IGROV-1 > 100 µM

O=[N+]([O-])c1ccc2sc(/C=N/c3ccccn3)cc2c1
inactive: MCF7 30.4 µM | SR 26.4 µM | SNB-75 > 100 µM | M14 > 100 µM | Hs-578T 47.6 µM | HOP-92 69.8 µM | CAKI-1 > 100 µM | Malme-3M > 100 µM | UACC-62 99.1 µM | SN12C 88.7 µM | SK-MEL-5 > 100 µM | MDA-N > 100 µM | CCRF-CEM 33.8 µM | A498 > 100 µM | SK-MEL-2 > 100 µM | SF-268 28.5 µM | UO-31 > 100 µM | IGROV-1 60.4 µM

Cc1nc2c(=O)n(-c3ccccc3)c(=O)n(-c3ccccc3)c2o1
inactive: MCF7 > 100 µM | SR > 100 µM | SNB-75 > 100 µM | M14 > 100 µM | Hs-578T > 100 µM | NCI-H226 > 100 µM | HOP-92 > 100 µM | CAKI-1 > 100 µM | Malme-3M > 100 µM | UACC-62 > 100 µM | SN12C > 100 µM | SK-MEL-5 > 100 µM | MDA-N > 100 µM | CCRF-CEM > 100 µM | A498 > 100 µM | SK-MEL-2 > 100 µM | SF-268 > 100 µM | UO-31 > 100 µM | IGROV-1 > 100 µM

CNC(=O)OCc1cnc([N+](=O)[O-])n1C
inactive: MCF7 > 100 µM | SR > 100 µM | SNB-75 > 100 µM | Hs-578T > 100 µM | NCI-H226 > 100 µM | HOP-92 > 100 µM | CAKI-1 > 100 µM | Malme-3M > 100 µM | SN12C > 100 µM | SK-MEL-5 > 100 µM | MDA-N > 100 µM | CCRF-CEM > 100 µM | A498 > 100 µM | SK-MEL-2 > 100 µM | SF-268 > 100 µM | UO-31 > 100 µM | IGROV-1 > 100 µM

S=P(C1CCCCC1)(C1CCCCC1)C(c1cccnc1)N1CCCC1 (stereo not given)
inactive: MCF7 > 100 µM | SR 25.5 µM | SNB-75 19.4 µM | M14 18.4 µM | Hs-578T 35.4 µM | NCI-H226 19.4 µM | HOP-92 23.5 µM | CAKI-1 17.4 µM | Malme-3M 23.2 µM | UACC-62 22.5 µM | SN12C 18.2 µM | SK-MEL-5 16.5 µM | MDA-N 20.1 µM | CCRF-CEM 15.8 µM | A498 27.7 µM | SK-MEL-2 20.9 µM | SF-268 18.5 µM | IGROV-1 17.9 µM

O=[N+]([O-])c1ccc(Cl)c(CNc2ncnc3c2ncn3C2CCCCO2)c1 (stereo not given)
inactive: MCF7 17.1 µM | SR 18.5 µM | SNB-75 43.6 µM | M14 28.2 µM | Hs-578T > 100 µM | NCI-H226 43.2 µM | HOP-92 42.3 µM | CAKI-1 > 100 µM | Malme-3M 64.9 µM | UACC-62 22.8 µM | SN12C 29.6 µM | SK-MEL-5 21.7 µM | MDA-N 12.7 µM | A498 12.4 µM | SK-MEL-2 28.5 µM | SF-268 97.9 µM | UO-31 22 µM | IGROV-1 58.2 µM

CC1(C)N=c2c(ncn2Cc2ccccc2)=C(C(N)=O)N1
inactive: MCF7 > 100 µM | SR > 100 µM | SNB-75 > 100 µM | M14 > 100 µM | Hs-578T > 100 µM | NCI-H226 > 100 µM | HOP-92 > 100 µM | CAKI-1 > 100 µM | Malme-3M > 100 µM | UACC-62 > 100 µM | SN12C > 100 µM | SK-MEL-5 > 100 µM | MDA-N > 100 µM | CCRF-CEM > 100 µM | A498 > 100 µM | SK-MEL-2 > 100 µM | SF-268 > 100 µM | IGROV-1 > 100 µM

CCCCCCCCCCCCCCCCCCNc1ccn(C2OC(COP(=O)(O)OCC3OC(n4cc(C)c(=O)[nH]c4=O)CC3F)C(O)C2O)c(=O)n1 (stereo not given)
inactive: MCF7 9.46 µM | SR 1.44 µM | SNB-75 19.8 µM | M14 8.17 µM | Hs-578T 11.1 µM | NCI-H226 37.8 µM | HOP-92 18.4 µM | CAKI-1 8.73 µM | Malme-3M 15 µM | UACC-62 6.24 µM | SN12C 7.87 µM | SK-MEL-5 9.89 µM | MDA-N 8.15 µM | CCRF-CEM 4.61 µM | A498 13.8 µM | SK-MEL-2 9.14 µM | SF-268 8.59 µM | UO-31 13.2 µM | IGROV-1 5.78 µM

O=C(O)CN1CCNCCN(CC(=O)O)CCN(CC(=O)O)CCNCC1
inactive: MCF7 69.8 µM | SR 61.1 µM | SNB-75 63.4 µM | M14 > 100 µM | Hs-578T > 100 µM | NCI-H226 > 100 µM | HOP-92 > 100 µM | CAKI-1 > 100 µM | Malme-3M > 100 µM | UACC-62 84.7 µM | SN12C > 100 µM | SK-MEL-5 > 100 µM | MDA-N > 100 µM | CCRF-CEM > 100 µM | A498 71.9 µM | SK-MEL-2 > 100 µM | UO-31 > 100 µM | IGROV-1 > 100 µM

COc1ccc(C(=O)/C=C2\Nc3cccnc3N\C2=C/C(=O)c2ccc(OC)cc2)cc1
inactive: MCF7 14.8 µM | SR 16.1 µM | M14 20.9 µM | Hs-578T 15.2 µM | NCI-H226 4.8 µM | HOP-92 53.1 µM | CAKI-1 17.2 µM | Malme-3M 11.7 µM | UACC-62 17.3 µM | SN12C 12.2 µM | SK-MEL-5 25.1 µM | MDA-N 64.7 µM | CCRF-CEM > 100 µM | A498 > 100 µM | SK-MEL-2 23.7 µM | SF-268 7.8 µM | UO-31 27.4 µM | IGROV-1 5.11 µM

COc1ccc(Cc2ccc3nc(O)cc(C)c3c2)cc1S(=O)(=O)O
inactive: MCF7 > 100 µM | SR > 100 µM | SNB-75 > 100 µM | M14 > 100 µM | Hs-578T > 100 µM | NCI-H226 > 100 µM | HOP-92 > 100 µM | CAKI-1 > 100 µM | Malme-3M > 100 µM | UACC-62 > 100 µM | SN12C > 100 µM | SK-MEL-5 > 100 µM | MDA-N > 100 µM | CCRF-CEM > 100 µM | A498 > 100 µM | SK-MEL-2 > 100 µM | SF-268 > 100 µM | UO-31 > 100 µM | IGROV-1 > 100 µM
